The target in assay [1] is T1, DNA polymerase catalytic subunit (Herpes simplex virus (type 1 / strain 17)) (UniProt P04293).
T1 sequence (whole entry): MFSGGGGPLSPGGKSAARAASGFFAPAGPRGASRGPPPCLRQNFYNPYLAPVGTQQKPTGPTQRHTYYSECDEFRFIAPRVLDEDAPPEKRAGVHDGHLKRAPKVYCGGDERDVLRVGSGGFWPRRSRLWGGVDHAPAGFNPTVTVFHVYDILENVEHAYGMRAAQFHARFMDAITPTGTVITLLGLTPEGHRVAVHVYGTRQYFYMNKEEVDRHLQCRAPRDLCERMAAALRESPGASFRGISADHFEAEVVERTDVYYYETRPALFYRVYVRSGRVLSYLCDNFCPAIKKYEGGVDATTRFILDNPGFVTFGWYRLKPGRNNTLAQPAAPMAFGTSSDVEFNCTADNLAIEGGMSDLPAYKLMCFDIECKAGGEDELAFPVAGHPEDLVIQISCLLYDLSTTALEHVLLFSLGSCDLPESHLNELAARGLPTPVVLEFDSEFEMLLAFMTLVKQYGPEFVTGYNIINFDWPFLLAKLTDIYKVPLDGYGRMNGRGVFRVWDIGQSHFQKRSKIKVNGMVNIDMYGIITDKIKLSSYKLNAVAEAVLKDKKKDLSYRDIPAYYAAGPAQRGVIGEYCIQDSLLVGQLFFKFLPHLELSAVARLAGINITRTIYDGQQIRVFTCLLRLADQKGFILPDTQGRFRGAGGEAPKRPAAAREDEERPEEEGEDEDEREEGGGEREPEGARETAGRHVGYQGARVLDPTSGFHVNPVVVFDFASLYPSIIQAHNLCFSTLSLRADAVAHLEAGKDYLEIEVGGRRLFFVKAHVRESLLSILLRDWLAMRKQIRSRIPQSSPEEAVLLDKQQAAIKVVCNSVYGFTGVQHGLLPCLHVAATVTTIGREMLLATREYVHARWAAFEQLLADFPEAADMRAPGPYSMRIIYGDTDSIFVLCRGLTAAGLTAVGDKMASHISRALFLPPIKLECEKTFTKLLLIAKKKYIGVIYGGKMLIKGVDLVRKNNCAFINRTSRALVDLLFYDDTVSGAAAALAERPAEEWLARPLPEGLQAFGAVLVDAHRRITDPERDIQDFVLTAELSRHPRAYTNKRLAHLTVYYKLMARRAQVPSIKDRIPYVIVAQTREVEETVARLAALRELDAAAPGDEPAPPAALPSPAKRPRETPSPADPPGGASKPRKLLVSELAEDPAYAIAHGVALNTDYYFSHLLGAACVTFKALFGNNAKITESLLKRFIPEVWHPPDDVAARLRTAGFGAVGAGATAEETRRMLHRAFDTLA
Briefly: Percentage of monophosphates (MP) in the second step of staggered assay mixture from step 1 was incubated with GMP kinase and crude extract of HSV-1 infected HeLa cells over night. The format is functional, cell-based.

Assay [2] deals with T1, DNA polymerase catalytic subunit (Herpes simplex virus (type 1 / strain 17)). Briefly: (§1) Inhibition of DNA polymerase. Also noted: concentration or dose not given beside the values. The following applies: concentration not given here.
Assay [3] in a line: as §1. Also noted: concentration or dose not given beside the values. The following applies: concentration not given here.
Assay [4] in a line: (§2) Antiviral activity against HSV-2 cell line (concentration required to prevent viral cytopathic effect in half of primary rabbit kidney cell cultures). To be noted: Oryctolagus cuniculus, HSV-2, read-out: ED50.
Assay [5] is described as follows: (§3) Antiviral activity against HSV-1 cell line (concentration required to prevent viral cytopathic effect in half of primary rabbit kidney cell cultures). The following applies: Oryctolagus cuniculus, read-out: ED50. For orientation: Cytopathic effects are the visible damage that an infection or toxin causes in cultured cells.
In assay [6] the target is T1, DNA polymerase catalytic subunit (Herpes simplex virus (type 1 / strain 17)). As to the kind of experiment: (§4) Percentage of triphosphates (TP) in the second step of staggered assay mixture from step 1 was incubated with GMP kinase and crude extract of HSV-1 infected HeLa cells over night. The following applies: Homo sapiens. Type of assay: functional, cell-based.
For assay [7] the target is unchanged. Briefly: Percentage of diphosphates (DP) in the second step of staggered assay mixture from step 1 was incubated with GMP kinase and crude extract of HSV-1 infected HeLa cells over night. The format is functional, cell-based.
The species named for assay [8] is Oryctolagus cuniculus. Briefly: Antiviral activity against HSV-2 cell line (concentration required to prevent viral cytopathic effect in half of primary rabbit kidney cell cultures); Not Active at 100 ug/mL. Type of assay: functional, organism-based.
For assay [9], the species on record is Oryctolagus cuniculus. As to the kind of experiment: Antiviral activity against HSV-1 cell line (concentration required to prevent viral cytopathic effect in half of primary rabbit kidney cell cultures); Not Active at 100 ug/mL. The format is functional, organism-based.
The species entered for assay [10] is Oryctolagus cuniculus. The assay is described as §2. The format is functional. To be noted: read-out: ED50 (the source's name).
Assay [11] is described as follows: as §1. Type of assay: functional. To be noted: concentration not given here.
For assay [12], the species on record is Oryctolagus cuniculus. The assay is described as §3. To be noted: read-out: ED50 (the source's name). Type of assay: functional.
Assay [13] concerns HeLa. The assay is described as §4. The format is functional, Homo sapiens.
In assay [14] the test system is Thymidine kinase (Human herpesvirus 1). As to the kind of experiment: Percentage of monophosphates (MP) formed in the first step of staggered assay compound was incubated with HSV-1 thymidine kinase for 4 hr.

≈ marks a conversion by molar mass, not a printed value. Calls of active or inactive are those of the source. No cut-off for these calls is given here.

The term inhibition denotes the drop in the measured response relative to a control, in per cent.

For the compound `Nc1nc2c(ncn2COCCO)c(=O)[nH]1` [ACYCLOVIR], the MP in assay [1] was 3%. Further, the values for the inhibition in assay [2] and in assay [3] were 79% and 40%, respectively. Further, the EC50 in assay [4] and in assay [5] was 3 µg/mL (≈ 13.3 µM) each time. Also, the TP in assay [6] is 60%. For the same compound, the DP in assay [7] was 9%.

Take `Nc1nc(O)c(N=O)c(NC[C@H]2C[C@@H]2CO)n1`: the ED50 entry in assay [8] and in assay [9] was “inactive” in each case. The MP in assay [1] is 9%. The inhibition amounted to 9% in assay [2] and 5% in assay [3]. The TP in assay [6] turned out to be 0%. The DP in [7] came to 0%.

As for `Nc1ncnc2c1ncn2CC1CC1(CO)CO` (stereo unspecified), the MP in [1] was 0%. The EC50 in assay [10] and in assay [12] was 50 µg/mL (≈ 201 µM) each time. Also, the inhibition in [2] worked out at 0%; in [11] it was 12%. In addition, in assay [6], the TP came out at 0%. Moreover, the DP in assay [7] is 0%.

`Nc1nc(O)c(N=O)c(NC[C@H]2C[C@H]2CO)n1`: the ED50 result in assay [8] and in assay [9] was “inactive” throughout. Further, the MP in [1] turned out to be 0%. Also, the inhibition in assay [2] was determined as 8%; in assay [3], 0%. Besides, in assay [6], the TP stood at 21%. For the same compound, in assay [7], the DP came to 0%.

Turning to `Nc1nc2c(ncn2COC(CO)CO)c(=O)[nH]1` [GANCICLOVIR], the MP in assay [1] amounted to 3%. Moreover, the EC50 in assay [10] and in assay [12] was 3 µg/mL (≈ 11.8 µM) throughout. Besides, the inhibition came to 60% in assay [2] and 22% in assay [3]. For the same compound, the TP in [6] is 84%. In addition, in assay [7], the DP was 10%.

In the case of `Nc1ncnc2c1ncn2C[C@H]1C[C@H]1CO`, the ED50 entry in [8] and in assay [9] was “inactive” each time. Also, in assay [1], the MP is 0%. The inhibition is 5% in assay [2] and 0% in [3]. The TP in [6] was 0%. The DP in assay [7] came out at 0%.

For `Nc1nc(O)c2ncn(CCC(CO)CO)c2n1` [PENCICLOVIR], in [1], the MP was determined as 3%. For the same compound, the values for the EC50 in assay [10] and in [12] were 12 µg/mL (≈ 47.4 µM) and 6 µg/mL (≈ 23.7 µM), respectively. The inhibition in assay [2] stood at 0%; in [3] it was 8%. The TP in [6] came to 75%. Also, the DP in [7] came to 13%.

As for `Nc1nc(O)c2ccn(C[C@H]3C[C@H]3CO)c2n1`, the ED50 entry in [8] and in assay [9] was “inactive” throughout. Further, the MP in assay [1] was 9%. Also, the results for the inhibition in assay [2] and in [3] were 14% and 0%, respectively. For the same compound, the TP in assay [6] was determined as 0%. Besides, the DP in [7] turned out to be 0%.

Consider `Nc1nc(O)c2ncn(C/C=C\CO)c2n1`, for which, in assay [1], the MP turned out to be 12%. For the same compound, the EC50 was 50 µg/mL (≈ 226 µM) in assay [10] and 12 µg/mL (≈ 54.2 µM) in [12]. The inhibition in assay [2] was 12%; in [3], 8%. For the same compound, the TP in [6] came out at 64%. The DP in [7] is 16%.

As to `Nc1nc(O)c2ncn(C[C@H]3C[C@H]3CO)c2n1`, in [1], the MP was 0%. The figures for the EC50 in assay [10] and in assay [12] were 12 µg/mL (≈ 51 µM) and 6 µg/mL (≈ 25.5 µM), respectively. Also, the inhibition worked out at 3% in [2] and 14% in assay [3]. Besides, the TP in assay [6] was found to be 76%. Moreover, the DP in assay [7] amounted to 0%.

Turning to `Nc1nc(O)c2ncn(CC=C(CO)CO)c2n1`, the ED50 entry in [8] and in [9] was “inactive” each time. The MP in assay [1] amounted to 0%. Besides, the inhibition in assay [2] and in assay [3] was 0% in each case. Also, the TP in assay [13] came to 25%. In addition, the DP in assay [7] worked out at 9%.

Take `Nc1ncnc2c1ncn2C/C=C\CO`: the NA result in assay [8] and in assay [9] was “inactive” throughout. The MP in assay [1] and in [14] was 0% in each case. In addition, the inhibition turned out to be 0% in [2] and 3% in assay [3]. Moreover, in assay [6], the TP worked out at 0%. Also, in assay [7], the DP amounted to 0%.

In the case of `Nc1nc(O)c2ncn(C[C@H]3CC3(CO)CO)c2n1`, the ED50 entry in [8] is “inactive”. In assay [1], the MP came out at 0%. In addition, the inhibition in assay [2] and in assay [3] was 0% throughout. For the same compound, in [12], the EC50 was 50 µg/mL (≈ 188 µM). Also, in assay [6], the TP was 0%. For the same compound, the DP in assay [7] was determined as 0%.

With `Nc1nc(O)c2nnn(C[C@H]3C[C@H]3CO)c2n1`, the ED50 result in assay [8] and in [9] was “inactive” each time. Also, the MP in assay [1] amounted to 2%. The figures for the inhibition in assay [2] and in assay [3] were 0% and 1%, respectively. Further, the TP in assay [6] came out at 55%. Moreover, the DP in assay [7] is 41%.

For `Nc1nc(O)c2ncn(C[C@H]3C[C@@H]3CO)c2n1`, the ED50 entry in assay [8] and in assay [9] was “inactive” throughout. Also, in assay [1], the MP worked out at 9%. Moreover, the inhibition in assay [2] worked out at 26%; in assay [3], 30%. The TP in assay [6] was found to be 2%. Besides, the DP in [7] stood at 48%.

In the case of `Cc1cn(C[C@H]2C[C@H]2CO)c(=O)[nH]c1=O`, the ED50 entry in assay [8] and in assay [9] was “inactive” throughout. Besides, in assay [1], the MP was 23%. For the same compound, the values for the inhibition in [2] and in assay [3] were 22% and 0%, respectively. For the same compound, in [6], the TP was found to be 0%. The DP in assay [7] came out at 0%.

As to `Nc1nc2c(ncn2CCCCO)c(=O)[nH]1`, the MP in assay [1] was determined as 0%. Also, the EC50 in assay [10] is 12 µg/mL (≈ 53.8 µM); in [12], 3 µg/mL (≈ 13.4 µM). Further, the inhibition in assay [2] and in [3] was 20% throughout. In addition, the TP in [6] is 17%. Further, the DP in [7] is 10%.

Regarding `Nc1nc(O)c2ncn(C/C=C/CO)c2n1`, the ED50 entry in assay [8] and in assay [9] was “inactive” in each case. For the same compound, the MP in assay [1] was determined as 9%. The inhibition in [2] and in [3] was 0% in each case. Further, the TP in [6] was 0%. For the same compound, the DP in [7] turned out to be 0%.

With `Nc1nc(O)c2ncn(CC#CCO)c2n1`, the ED50 entry in [8] and in assay [9] was “inactive” in each case. Moreover, in [1], the MP worked out at 0%. Moreover, the inhibition in assay [2] was found to be 0%; in assay [3] it was 5%. In addition, in [6], the TP stood at 0%. In assay [7], the DP came to 0%.

On to `Nc1ncnc2c1ncn2C[C@H]1C[C@@H]1CO`, for which the MP in [1] came out at 0%. In addition, the EC50 in assay [10] and in assay [12] was 50 µg/mL (≈ 228 µM) throughout. Besides, the inhibition in assay [2] and in assay [3] was 0% throughout. For the same compound, the TP in assay [6] worked out at 0%. Further, the DP in assay [7] stood at 0%.
